Biological target: cAMP and cAMP-inhibited cGMP 3',5'-cyclic phosphodiesterase 10A (Homo sapiens, UniProt Q9Y233)
Test: Fluorescence Polarization Assay: The fluorescence polarization assay for cyclic nucleotide phosphodiesterases was performed using an IMAP® FP kit supplied by Molecular Devices, Sunnyvale, Calif. (product # R8139). IMAP® technology has been applied previously to phosphodiesterase assays (Huang, W., et al., J. Biomol Screen, 2002, 7: 215). Assays were performed at room temperature in 384-well microtiter plates with an incubation volume of 20.2 μL. Solutions of test compounds were prepared in DMSO and serially diluted with DMSO to yield 8 μL of each of 10 solutions differing by 3-fold in concentration, at 32 serial dilutions per plate.

cAMP and cAMP-inhibited cGMP 3',5'-cyclic phosphodiesterase 10A, sequence (Q9Y233 whole entry): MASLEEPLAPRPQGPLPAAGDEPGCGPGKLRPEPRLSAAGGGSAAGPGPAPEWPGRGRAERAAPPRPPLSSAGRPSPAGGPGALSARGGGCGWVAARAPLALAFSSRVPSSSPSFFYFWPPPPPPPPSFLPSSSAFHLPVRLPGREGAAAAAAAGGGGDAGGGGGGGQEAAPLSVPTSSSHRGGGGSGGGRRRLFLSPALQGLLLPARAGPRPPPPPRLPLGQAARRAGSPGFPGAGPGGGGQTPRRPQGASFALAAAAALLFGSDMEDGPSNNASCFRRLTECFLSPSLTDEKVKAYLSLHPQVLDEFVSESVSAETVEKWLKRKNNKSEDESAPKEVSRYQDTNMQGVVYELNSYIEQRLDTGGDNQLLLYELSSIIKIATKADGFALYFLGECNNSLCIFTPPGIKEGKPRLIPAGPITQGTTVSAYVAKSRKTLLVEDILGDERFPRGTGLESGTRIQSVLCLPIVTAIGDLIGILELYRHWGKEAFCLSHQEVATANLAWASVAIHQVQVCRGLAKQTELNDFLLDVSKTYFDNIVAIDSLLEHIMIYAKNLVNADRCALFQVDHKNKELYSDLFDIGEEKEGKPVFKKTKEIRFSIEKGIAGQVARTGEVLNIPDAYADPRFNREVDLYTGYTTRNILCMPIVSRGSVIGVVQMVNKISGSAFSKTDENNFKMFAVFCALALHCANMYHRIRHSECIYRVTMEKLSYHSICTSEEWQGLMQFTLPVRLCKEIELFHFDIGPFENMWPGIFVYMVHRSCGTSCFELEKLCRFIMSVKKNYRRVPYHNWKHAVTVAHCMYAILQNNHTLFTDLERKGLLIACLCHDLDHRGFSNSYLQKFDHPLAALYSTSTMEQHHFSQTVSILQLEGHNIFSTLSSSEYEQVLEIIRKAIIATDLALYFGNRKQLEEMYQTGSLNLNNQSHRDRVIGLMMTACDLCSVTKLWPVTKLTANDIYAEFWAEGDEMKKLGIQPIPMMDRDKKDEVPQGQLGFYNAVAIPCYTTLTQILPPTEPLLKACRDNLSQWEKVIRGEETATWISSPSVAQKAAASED

Ki | SMILES
0.83 nM | Cc1ccc([C@H]2C[C@@H]2COc2nc(C)ncc2-c2cccc(C(F)(F)F)c2)nc1
< 0.01 nM | Cc1ncc(-c2cnc(C(C)(C)O)cc2C)c(OC[C@H]2C[C@@H]2c2ccc3ccccc3n2)n1
1.3 nM | COc1ccc([C@H]2C[C@@H]2COc2nc(C)ncc2-c2ccc(Cl)nc2)nc1
2.56 nM | Cc1ccc([C@H]2C[C@@H]2COc2nc(C)ncc2-c2cncnc2)nc1
0.57 nM | Cc1ncc(-c2ccc(C(C)(C)O)nc2)c(OC[C@H]2C[C@@H]2c2ccc(F)cn2)n1

— ChEMBL document CHEMBL5726258, “Pyrimidine PDE10 inhibitors” (2017)
